Results reported in US20240059671A1, “TYROSINE KINASE 2 (TYK2) DEGRADATION COMPOUNDS AND METHODS OF USE” (CULLGEN (SHANGHAI), INC., priority 2020, published 2024).

Target: TYK2 (Homo sapiens, UniProt P29597)
Test: TYK2 protein degradation in NOMO-1 cells by immunoblotting
Assay type: cell-based
Parameters: endogenous in cells
Conditions: NOMO-1 cells
How it was run: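 NOMO-1 cells in RPMI 1640 with 10% FBS were exposed to compound at 0.1–1000 nM for 16 hours. TYK2 levels in RIPA lysates were measured by SDS-PAGE immunoblot with chemiluminescent detection and band densitometry.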

TYK2, sequence (P29597 whole entry): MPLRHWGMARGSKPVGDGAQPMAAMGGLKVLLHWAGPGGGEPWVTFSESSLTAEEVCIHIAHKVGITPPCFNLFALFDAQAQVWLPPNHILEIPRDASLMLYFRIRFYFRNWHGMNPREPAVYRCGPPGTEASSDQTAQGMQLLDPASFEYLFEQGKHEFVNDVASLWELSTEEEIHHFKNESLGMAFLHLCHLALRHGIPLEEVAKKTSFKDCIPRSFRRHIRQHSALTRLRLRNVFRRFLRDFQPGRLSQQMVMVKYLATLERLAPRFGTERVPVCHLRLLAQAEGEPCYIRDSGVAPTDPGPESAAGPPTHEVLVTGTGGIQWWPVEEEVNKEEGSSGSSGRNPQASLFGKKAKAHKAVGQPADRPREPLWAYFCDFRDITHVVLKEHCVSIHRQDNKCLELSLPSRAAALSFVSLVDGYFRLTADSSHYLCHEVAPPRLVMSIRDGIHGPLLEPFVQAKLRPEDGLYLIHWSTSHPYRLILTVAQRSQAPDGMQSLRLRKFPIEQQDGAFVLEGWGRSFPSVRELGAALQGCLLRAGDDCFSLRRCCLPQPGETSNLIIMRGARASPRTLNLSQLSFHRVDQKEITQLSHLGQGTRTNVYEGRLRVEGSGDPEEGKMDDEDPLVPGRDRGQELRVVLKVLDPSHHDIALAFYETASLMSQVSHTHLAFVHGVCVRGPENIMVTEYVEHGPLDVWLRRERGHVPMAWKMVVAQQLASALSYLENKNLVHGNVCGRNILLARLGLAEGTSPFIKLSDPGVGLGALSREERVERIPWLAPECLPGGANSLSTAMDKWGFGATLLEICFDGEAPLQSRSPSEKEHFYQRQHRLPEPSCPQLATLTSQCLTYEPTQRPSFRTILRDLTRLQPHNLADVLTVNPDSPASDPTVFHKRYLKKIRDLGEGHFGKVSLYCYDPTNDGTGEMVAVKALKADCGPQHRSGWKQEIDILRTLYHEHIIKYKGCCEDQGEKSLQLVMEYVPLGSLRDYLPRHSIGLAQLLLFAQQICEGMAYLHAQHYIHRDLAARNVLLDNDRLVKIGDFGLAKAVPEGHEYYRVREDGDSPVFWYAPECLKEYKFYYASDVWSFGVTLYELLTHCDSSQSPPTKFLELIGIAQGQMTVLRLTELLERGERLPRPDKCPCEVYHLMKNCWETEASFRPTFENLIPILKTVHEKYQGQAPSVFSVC

| Structure (SMILES) | TYK2 Degradation (NOMO-1, 10 nM) | TYK2 Degradation (NOMO-1, 100 nM) |
| --- | --- | --- |
| CNC(=O)c1nnc(Nc2ccc(C#CC3CN(C(=O)CCCCCC(=O)N[C@H](C(=O)N4C[C@H](O)C[C@H]4C(=O)N[C@@H](C)c4ccc(-c5scnc5C)cc4)C(C)(C)C)C3)cn2)cc1Nc1cccc(-c2ncn(C)n2)c1OC [CPD-124, 6-((5-((1-(7-(((S)-1-((2S,4R)-4-hydroxy-2-(((S)-1-(4-(4-methylthiazol-5-yl)phenyl)ethyl)carbamoyl)pyrrolidin-1-yl)-3,3-dimethyl-1-oxobutan-2-yl)amino)-7-oxoheptanoyl)azetidin-3-yl)ethynyl)pyridin-2-yl)amino)-4-((2-methoxy-3-(1-methyl-1H-1,2,4-triazol-3-yl)phenyl)amino)-N-methylpyridazine-3-carboxamide] | A (A: ≥60% TYK2 degradation) | A (A: ≥60% TYK2 degradation) |
| CNC(=O)c1nnc(Nc2ccc(C(=O)NCCCCNc3ccc4c(c3)C(=O)N(C3CCC(=O)NC3=O)C4=O)cn2)cc1Nc1cccc(-c2ncn(C)n2)c1OC (stereo not shown) [CPD-163, 6-((5-((4-((2-(2,6-dioxopiperidin-3-yl)-1,3-dioxoisoindolin-5-yl)amino)butyl)carbamoyl)pyridin-2-yl)amino)-4-((2-methoxy-3-(1-methyl-1H-1,2,4-triazol-3-yl)phenyl)amino)-N-methylpyridazine-3-carboxamide] | – | C (C: ≤20% TYK2 degradation) |
| CNC(=O)c1nnc(Nc2ccc(N3CCN(C4CCN(C(=O)CCCCCCC(=O)N[C@H](C(=O)N5C[C@H](O)C[C@H]5C(=O)N[C@@H](C)c5ccc(-c6scnc6C)cc5)C(C)(C)C)CC4)CC3)cn2)cc1Nc1cccc(-c2ncn(C)n2)c1OC [CPD-149, 6-((5-(4-(1-(8-(((S)-1-((2S,4R)-4-Hydroxy-2-(((S)-1-(4-(4-methylthiazol-5-yl)phenyl)ethyl)carbamoyl)pyrrolidin-1-yl)-3,3-dimethyl-1-oxobutan-2-yl)amino)-8-oxooctanoyl)piperidin-4-yl)piperazin-1-yl)pyridin-2-yl)amino)-4-((2-methoxy-3-(1-methyl-1H-1,2,4-triazol-3-yl)phenyl)amino)-N-methylpyridazine-3-carboxamide] | – | A (A: ≥60% TYK2 degradation) |
| CNC(=O)c1nnc(Nc2ccc(C(=O)NCCNc3cccc4c3C(=O)N(C3CCC(=O)NC3=O)C4=O)cn2)cc1Nc1cccc(-c2ncn(C)n2)c1OC (stereo not shown) [CPD-152, 6-((5-((2-((2-(2,6-Dioxopiperidin-3-yl)-1,3-dioxoisoindolin-4-yl)amino)ethyl)carbamoyl)pyridin-2-yl)amino)-4-((2-methoxy-3-(1-methyl-1H-1,2,4-triazol-3-yl)phenyl)amino)-N-methylpyridazine-3-carboxamide] | – | A (A: ≥60% TYK2 degradation) |
| CNC(=O)c1nnc(Nc2ccc(C#CC3CCN(C(=O)CCCC(=O)N[C@H](C(=O)N4C[C@H](O)C[C@H]4C(=O)N[C@@H](C)c4ccc(-c5scnc5C)cc4)C(C)(C)C)CC3)cn2)cc1Nc1cccc(-c2ncn(C)n2)c1OC [CPD-134, 6-((5-((1-(5-(((S)-1-((2S,4R)-4-hydroxy-2-(((S)-1-(4-(4-methylthiazol-5-yl)phenyl)ethyl)carbamoyl)pyrrolidin-1-yl)-3,3-dimethyl-1-oxobutan-2-yl)amino)-5-oxopentanoyl)piperidin-4-yl)ethynyl)pyridin-2-yl)amino)-4-((2-methoxy-3-(1-methyl-1H-1,2,4-triazol-3-yl)phenyl)amino)-N-methylpyridazine-3-carboxamide] | A (A: ≥60% TYK2 degradation) | A (A: ≥60% TYK2 degradation) |
| CNC(=O)c1nnc(Nc2ccc(C#CC3CCN(C(=O)CCC(=O)N[C@H](C(=O)N4C[C@H](O)C[C@H]4C(=O)N[C@@H](C)c4ccc(-c5scnc5C)cc4)C(C)(C)C)CC3)cn2)cc1Nc1cccc(-c2ncn(C)n2)c1OC [CPD-116, 6-((5-((1-(4-(((S)-1-((2S,4R)-4-Hydroxy-2-(((S)-1-(4-(4-methylthiazol-5-yl)phenyl)ethyl)carbamoyl)pyrrolidin-1-yl)-3,3-dimethyl-1-oxobutan-2-yl)amino)-4-oxobutanoyl)piperidin-4-yl)ethynyl)pyridin-2-yl)amino)-4-((2-methoxy-3-(1-methyl-1H-1,2,4-triazol-3-yl)phenyl)amino)-N-methylpyridazine-3-carboxamide] | C (C: ≤20% TYK2 degradation) | A (A: ≥60% TYK2 degradation) |
| CNC(=O)c1nnc(Nc2ccc(C#CC3CCN(C(=O)CCCCCCCC(=O)N[C@H](C(=O)N4C[C@H](O)C[C@H]4C(=O)N[C@@H](C)c4ccc(-c5scnc5C)cc4)C(C)(C)C)CC3)cn2)cc1Nc1cccc(-c2ncn(C)n2)c1OC [CPD-120, 6-((5-((1-(9-(((S)-1-((2S,4R)-4-Hydroxy-2-(((S)-1-(4-(4-methylthiazol-5-yl)phenyl)ethyl)carbamoyl)pyrrolidin-1-yl)-3,3-dimethyl-1-oxobutan-2-yl)amino)-9-oxononanoyl)piperidin-4-yl)ethynyl)pyridin-2-yl)amino)-4-((2-methoxy-3-(1-methyl-1H-1,2,4-triazol-3-yl)phenyl)amino)-N-methylpyridazine-3-carboxamide] | – | A (A: ≥60% TYK2 degradation) |
